These results are taken from patent US7019014B2, “Process for producing anticancer agent LL-D45042” (Wyeth Holdings Corporation, priority 2003, dated 2006).

Values after ≈ are worked out from the molar mass of the structure shown.

Test [1] has as its system brain cancer line U87MG. Briefly: In vitro anticancer test: growth inhibition in U87MG tumour cells. The class given is cell-based. The conditions noted are these: Homo sapiens, U-87 MG, PTEN mutant, multi-dose testing. The method, then:
(§1) The in vitro anticancer activity of LL-D45042 is determined by measuring the concentration of compound required to inhibit the growth of 50% of cells in two tumour cell lines. […] The elevated sensitivity is due to its genetic mutation in the PTEN tumor suppressor gene leading to constitutive activation of mTOR signaling pathway. […] LL-D45042 is also evaluated in a binding assay of FKBP12, a cellular receptor of rapamycin, to determine its binding affinity. The results are given in Table 2, with IC50's reported in units of ng/mL.
(§2) These determinations are made by multi-dose testing of LL-D45042 and direct comparisons to the reference samples.

Test [2] relates to breast cancer line MDA435. Briefly: In vitro anticancer test: growth inhibition in MDA435 tumour cells. The class given is cell-based. Conditions: no PTEN mutation, multi-dose testing. The method, then:
as §1, §2

Test [3] addresses FKBP12 (Homo sapiens, UniProt P62942). Briefly: FKBP12 binding assay. Conditions: FKBP12, a cellular receptor of rapamycin; read-out: Protein Binding, FKBP (IC50) (converted). The method, then: as §1, §2
The subject of test [4] is brain cancer line U87MG. The conditions noted are these: previously established; PTEN mutation, constitutive mTOR activation; cited from earlier work.
Test [5] deals with breast cancer line MDA435. The conditions noted are these: previously established; no PTEN mutation; cited from earlier work.

FKBP12, sequence (P62942 whole entry, species assumed): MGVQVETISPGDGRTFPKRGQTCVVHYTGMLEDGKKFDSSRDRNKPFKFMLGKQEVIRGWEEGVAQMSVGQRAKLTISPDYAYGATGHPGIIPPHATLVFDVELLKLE

In the case of `CO[C@@H]1C[C@H](C[C@@H](C)[C@@H]2CC(=O)[C@H](C)/C=C(\C)[C@@H](O)[C@@H](O)C(=O)[C@H](C)C[C@H](C)/C=C/C=C/C=C(\C)[C@@H](O)C[C@@H]3CC[C@@H](C)[C@](O)(CC(=O)N4CCCC[C@H]4C(=O)O2)O3)CC[C@H]1O` [LL-D45042], the concentration for half-maximal inhibition (IC50) in test [1] was 0.035 µg/mL (≈ 0.0401 µM); in test [2], greater than 1 µg/mL; in test [3], 401 nM.

`CO[C@H]1C[C@@H]2CC[C@@H](C)[C@@](O)(O2)C(=O)C(=O)N2CCCC[C@H]2C(=O)O[C@H]([C@H](C)C[C@@H]2CC[C@@H](O)[C@H](OC)C2)CC(=O)[C@H](C)/C=C(\C)[C@@H](O)[C@@H](OC)C(=O)[C@H](C)C[C@H](C)/C=C/C=C/C=C/1C` [rapamycin, Rapamycin]: the “Sensitivity of U87MG to growth inhibition” value in test [4] is “highly sensitive”. In test [5], the “Sensitivity of MDA435 to growth inhibition” value is listed as “rapamycin-resistant phenotype”.

As usually defined, the IC50 is the concentration that inhibits the measured activity by half.
